In patent publication US6951953B2, “Tumor selective and biodegradable polyphosphazene-platinum(II) conjugate antitumor agent, and preparation method thereof” (EWHA Womans University, priority 2003, dated 2005):
Read-outs that look alike come from different tables or passages of the source.

Tests used:
[1] = tested on: gastric tumor cell line (YCC-3); experiment: In vivo xenograft test against a gastric tumor cell line (YCC-3); conditions: YCC-3 xenograft in nu/nu mice; for The tumor tissue size after injection of an antitumor agent: intraperitoneal; for tumor tissue growth rate / inhibition effect on it (in words): versus control group / cisplatin, after 60 days from injection
Method: The in vivo sensitivity of the present conjugate drug against a gastric tumor cell line (YCC-3) was assayed using nu/nu mice (6-8 weeks old, 20-25 g). After being treated with 0.25% Trypsin-EDTA, the cultivated tumor cells were centrifuged in PBS solution for 5 minutes. This process was repeated three or more times, and then the tumor cells were made into a single floated tumor cell. The concentration of the tumor cells in PBS solution was calculated from the number of cells measured by a hemocytometer. The tumor cells were then kept in ice and were injected into mice within 30 minutes. The single floated tumor cells (4×10^7) in 100 μl of PBS solution were subcutaneously injected into the right side of each mouse using an 1 ml syringe.
[…] In the case of the control group, only the same amount of PBS solution was injected. Weights of the mice and tumor size were measured every two days. Size of the tumor was calculated with an equation of length×width×width/2.

[2] = tested on: leukemia L1210 cell line; conditions: read-out: In vitro (ID50)
[3] = tested on: leukemia L1210 cell line

Row | Compound | IC50 [2] | in vivo T/C (%) ([3]; dosage 30 mg/kg) | in vivo T/C (%) ([3]; dosage 60 mg/kg) | further results
1 | N.N.[Cl][Pt][Cl] [Cisplatin, reference compound] | – | – | – | The tumor tissue size after injection of an antitumor agent ([1]; 18 days, dosage 4 mg/kg): 161.36 mm^3; The tumor tissue size after injection of an antitumor agent ([1]; 32 days, dosage 4 mg/kg): 330.62 mm^3; The tumor tissue size after injection of an antitumor agent ([1]; 48 days, dosage 4 mg/kg): 588.02 mm^3; The tumor tissue size after injection of an antitumor agent ([1]; 60 days, dosage 4 mg/kg): 815.79 mm^3; tumor tissue growth rate / inhibition effect on it (in words) [1]: not significantly different from that of the control group
2 | poly{[methoxy poly(ethylene glycol)350][glycylglutamato-trans-(±)-1,2-diaminocyclohexaneplatinum(II)]phosphazene}, {NP(MPEG350)1.0[(GlyGlu)Pt(dach)]1.0}n [Example 3] | 3.4 µM | 194.1% | toxic | The tumor tissue size after injection of an antitumor agent ([1]; 18 days, dosage 30 mg/kg): 121.92 mm^3; The tumor tissue size after injection of an antitumor agent ([1]; 18 days, dosage 60 mg/kg): 32.69 mm^3; The tumor tissue size after injection of an antitumor agent ([1]; 32 days, dosage 30 mg/kg): 210.38 mm^3; The tumor tissue size after injection of an antitumor agent ([1]; 32 days, dosage 60 mg/kg): 72.08 mm^3; The tumor tissue size after injection of an antitumor agent ([1]; 48 days, dosage 30 mg/kg): 111.23 mm^3; The tumor tissue size after injection of an antitumor agent ([1]; 48 days, dosage 60 mg/kg): 65.36 mm^3; The tumor tissue size after injection of an antitumor agent ([1]; 60 days, dosage 30 mg/kg): 22.71 mm^3; The tumor tissue size after injection of an antitumor agent ([1]; 60 days, dosage 60 mg/kg): 91.10 mm^3; tumor tissue growth rate / inhibition effect on it (in words) [1]: outstanding compared with that of cisplatin
3 | poly{[methoxy poly(ethylene glycol)350][glycylglutamato-trans-(±)-1,2-diaminocyclohexaneplatinum(II)]phosphazene}, {NP(MPEG350)1.2[(GlyGlu)Pt(dach)]0.8}n [Example 2] | 6.9 µM | 208.1% | > 305.6% | –
4 | poly{[methoxy poly(ethylene glycol)350][glycylglutamato-trans-(±)-1,2-diaminocyclohexaneplatinum(II)]phosphazene}, {NP(MPEG350)1.4[(GlyGlu)Pt(dach)]0.6}n [Example 5] | 6.2 µM | 244.3% | 231.1% | –
5 | poly{[methoxy poly(ethylene glycol)350][glycylglutamato-trans-(±)-1,2-diaminocyclohexaneplatinum(II)]phosphazene}, {NP(MPEG350)1.5[(GlyGlu)Pt(dach)]0.5}n [Example 1] | 8.2 µM | 178/30% | – | –
6 | poly{[methoxy poly(ethylene glycol)550][glycylglutamato-trans(±trans-(±)-1,2-diaminocyclohexaneplatinum(II)]phosphazene}, {NP(MPEG350)1.12[(GlyGlu)Pt(dach)]0.88}n [Example 7] | > 40 µM | 228.2% | 209.4% | –
7 | pol{[methoxy poly(ethylene glycol)350][glycylglutamato-trans-(±)-1,2-diaminocyclohexaneplatinum(II)]phosphazene}, {NP(MPEG350)1.2[(GlyGlu)Pt(dach)]0.8}n [Example 4] | 3.5 µM | 186.8% | 216.8% | –
